The values below come from patent publication US8142821B2, “Xanthohumol-enriched hop extract” (Flazan GmbH & Co. KG, priority 2007, dated 2012).

In brackets after ≈: the same amount, converted by molar mass.

Test [1] in a line: FRAP, ferric reducing antioxidative power. Conditions: among hop components. The method, then: (§1) [table] […] The SOAC scores are not included in this figure; ORAC values used are the sum of lipophilic and hydrophilic results. For each assay category, scaling was made logarithmic so that the plot on the chart resembles the associated rating. […] The larger the spatial area, the higher the overall antioxidative capacity. […] Both hydrophilic and lipophilic oxygen radical absorbance capacity (ORAC) assays were carried out at Brunswick Laboratory (Wareham, Mass.) based on the modified ORACfl method reported by Ou et al. (2001 J. Agric. Food Chem. 49: 4619-4626, 2002 J. Agr. Food Chem. 50: 3122-3128). Trolox, a water-soluble vitamin E analog, was used as the calibration standard. The data are expressed as mmole of Trolox equivalents per gram (mmol TE/g). […] Hydroxyl radical ORAC (HOR-AC) is expressed as mmole caffeic acid equivalent per gram (mmol CAE/g). […] The peroxyl nitrite ORAC (NORAC) result is expressed as mmol TE/g. Alpha-tocopherol (vitamin E) was used as the calibration standard, and the singlet oxygen absorbance capacity (SOAC) result is expressed as mmole a-tocopherol equivalent (mmol VtE) per gram (Aubry et al. 1989 J. Org. Chem. 54: 726-728). […] Radical-scavenging activity was measured by the change in absorbance at 517 nm with the DPPH result expressed as mmol TE/g. […] The FRAP result is expressed as mmol TE/g (Ou et al. J. Agric. Food Chem. 49: 4619-4626). […]

Another test is described as follows: SOD antioxidant assay. Particulars: among hop components.
For the next test, the system named is S. pyogenes (ATCC 14289). As to the kind of experiment: Antimicrobial susceptibility, broth dilution. It is filed as cell-based. Conditions: Streptococcus pyogenes, ATCC14289; lowest concentration required to kill. The method, then:
(§2) The antibacterial effects of seven hops components against five different strains of bacteria involved in primary or secondary skin and soft tissue infections was evaluated, with broth dilution methods. […] Antimicrobial susceptibility testing was performed using a broth dilution method. Gentamicin or ampicillin was used as a control to verify the methodology. A stock solution (20 mg/ml) of the test substance (or vehicle control) was prepared in dimethyl sulfoxide. Serial dilution was done in microwell plates. Reinforced Clostridial Medium was used for P. acnes (ATCC 6919). Three hundreds […] of the test substance was added to the test tube containing P. acnes (10^5 CFU/ml) in 2.7 ml of cultures grown under anaerobic conditions. Mueller-Hinston Broth suitable for culturing S. epidermidis (ATCC 12228), K. rhizophila (formerly M. luteus) (ATCC 9341), and S. aureus (ATCC […]), and Brain Heart Infusion Broth suitable for culturing S. pyogenes (ATCC 14289) were used. A total of […] of the test substance was added to the test tube containing the other microorganisms (10^5 CFU/ml) in 0.9 ml of cultures grown under controlled conditions. […] Samples from those tubes that scored positive was plated onto an agar plate and incubated under controlled conditions.
A general note: In broth dilution the organism is exposed to a series of concentrations in liquid medium.

Test [2] has as its system S. epidermidis (ATCC 12228). The test is described as follows: Antimicrobial susceptibility, broth dilution. It counts as cell-based. Conditions: Staphylococcus epidermidis, ATCC12228; lowest concentration required to kill. How it is done:
as §2

Test [3] has as its system K. rhizophila (formerly M. luteus) (ATCC 9341). As to the kind of experiment: Antimicrobial susceptibility, broth dilution. It counts as cell-based. Particulars: Kocuria rhizophila, ATCC9341; lowest concentration required to kill. How it is done:
as §2

For a further test, the system named is S. aureus (ATCC 6538P). As to the kind of experiment: Antimicrobial susceptibility, broth dilution. It counts as cell-based. Particulars: Staphylococcus aureus, ATCC6538P; lowest concentration required to kill. The method, then: as §2
The next test concerns P. acnes (ATCC 6919). As to the kind of experiment: Antimicrobial susceptibility, broth dilution. It counts as cell-based. Particulars: Cutibacterium acnes, ATCC6919; lowest concentration required to kill. How it is done: as §2
Test [4] in a line: ORAC-Total (ORAClipo + ORAChydro). Conditions: among hop components. How it is done: In the present work, the ORAC value is expressed as the sum of values of both the water-soluble and fat-soluble parts. Green tea catechins (Polyphenon 60) were used as the control with the highest ORAC value among edible plants. Vitamin C and vitamin E were used as controls for water- and fat-soluble molecules, respectively. Both hydrophilic and lipophilic oxygen radical absorbance capacity (ORAC) assays were carried out at Brunswick Laboratory (Wareham, Mass.) based on the modified ORACfl method reported by Ou et al. (2001 J. Agric. Food Chem. 49: 4619-4626, 2002 J. Agr. Food Chem. 50: 3122-3128). Trolox, a water-soluble vitamin E analog, was used as the calibration standard. The data are expressed as mmole of Trolox equivalents per gram (mmol TE/g). […] Hydroxyl radical ORAC (HOR-AC) is expressed as mmole caffeic acid equivalent per gram (mmol CAE/g). […] The peroxyl nitrite ORAC (NORAC) result is expressed as mmol TE/g. Alpha-tocopherol (vitamin E) was used as the calibration standard, and the singlet oxygen absorbance capacity (SOAC) result is expressed as mmole a-tocopherol equivalent (mmol VtE) per gram (Aubry et al. 1989 J. Org. Chem. 54: 726-728). […] Radical-scavenging activity was measured by the change in absorbance at 517 nm with the DPPH result expressed as mmol TE/g. […] The FRAP result is expressed as mmol TE/g (Ou et al. J. Agric. Food Chem. 49: 4619-4626). […]

Test [5] can be described thus: HORAC, hydroxyl radical ORAC. Particulars: among hop components. How it is done:
as §1

Take `COc1cc(O)c(CC=C(C)C)c(O)c1C(=O)/C=C/c1ccc(O)cc1` [Xanthohumol (7), Xanthohumol]: in [1], the “rank of quenching activity against ferric ion (FRAP), FIG. 2” value is on record as “highest quenching activity”. Moreover, in “SOD antioxidant assay”, the “rank of quenching activity against superoxide (SOD), FIG. 2” value was “highest quenching activity”. The minimal bactericidal concentration (MBC) with S. pyogenes (ATCC 14289) was 3 µg/mL (≈ 8.46 µM); in [2] it was 10 µg/mL (≈ 28.2 µM); in test [3], 10 µg/mL (≈ 28.2 µM); against S. aureus (ATCC 6538P), 100 µg/mL (≈ 282 µM); against P. acnes (ATCC 6919), 3 µg/mL (≈ 8.46 µM). The “rank of quenching activity against peroxyl radical (ORAC-total), FIG. 2” value in test [4] is “highest quenching activity”. Further, the “rank of quenching activity against hydroxyl radical (HORAC), FIG. 2” value in test [5] is reported as “highest quenching activity”.

Broadly, the MBC is the smallest concentration meeting the test's criterion for killing.
